Reference: US11186577B2, “Vasopressin receptor antagonists and products and methods related thereto” (BlackThorn Therapeutics, Inc., priority 2017, dated 2021)
Like-named read-outs stand apart in the source and are kept apart here.

Key:
[1] = biological target: human Arginine Vasopressin Receptor 1b (AVPR1b) (Homo sapiens (Human), UniProt P47901); test: Vasopressin V1B receptor antagonist assay (AVP-evoked calcium, FLIPR, CHO-AVPR1b cells); assay type: cell-based
Protocol: The purpose of the assay is to determine the inhibitory effect of synthesized compounds on the Vasopressin V1b receptor. The assay was performed in Chinese Hamster Ovary (CHO) cells expressing the human Arginine Vasopressin Receptor 1b (AVPR1b). Arginine Vasopressin (AVP) evokes an increase in intracellular calcium in CHO-AVPR1b cells which is measured in a fluorescence assay on the FLIPR^TETRA using calcium sensitive dyes. Test compounds were assessed for their ability to affect the magnitude of the response to AVP, with antagonists showing a concentration-dependent reduction in the AVP-mediated fluorescence.
CHO-AVPR1b cells were maintained in routine culture in T175 Flasks at 37° C., 5% CO2. The growth medium consisted of Ham's F12 media supplemented with 10% v/v fetal bovine serum, 1× non-essential amino acids, and 0.4 mg/ml Geneticin G418.
Cells were harvested from T175 flasks when they were 80-90% confluent by first washing the cell monolayer with PBS and then dissociated using trypsin 0.05%/EDTA (3 mL for a T175 Flask). The flasks were incubated at room temperature until the cells detached. To the cell suspension, 10 ml of growth media was added and the cell density determined using the Vi-Cell automated cell counter. The cells were spun at 1000 rpm for 3 minutes, then the supernatant was carefully removed and discarded. The cell pellet was re-suspended at 6.0e^5 cells/ml in growth media. 25 μL of cells in growth media was dispensed into each well (15,000 cells per well) of a poly-D-lysine coated black, clear bottomed, 384-well plate. The plates were incubated at 37° C., 5% CO2 overnight.
At the start of each assay day, the potency of AVP is assessed and an EC80 concentration determined for subsequent compound profiling. Assays were performed using a two-step addition protocol on the FLIPR^TETRA; first addition of 5 μl of control or test compound at 10× final in assay buffer with 15 min incubation at 37° C., 5% CO2 followed by 10 μl of AVP at 6× final concentration in assay buffer. Changes in fluorescence were monitored for 3 min after both additions on the FLIPR^TETRA using 470-495 nm excitation and 515-575 nm emission wavelengths. The assay buffer consisted of HBSS (+Ca/+Mg) supplemented with 20 mM HEPES, and for the preparation of the AVP agonist only, 0.1% w/v bovine serum albumin. The assay was initiated by the removal of growth media from the cells and replacement with 45 μl of Calcium-6 dye (Molecular Devices) prepared at 1× in assay buffer. Cells were loaded with dye for 60-90 min at 37° C., 5% CO2 before initiation of the FLIPR^TETRA protocol. […] For compound profiling, test compounds were first serially diluted in DMSO (10-point curve, 1:3 dilutions) then diluted 33.3-fold in assay buffer prior to addition to the dye loaded cells on the FLIPR^TETRA. At the end of the incubation period 10 μl of AVP in assay buffer containing 0.1% BSA was added at the previously determined EC80 concentration.
In-plate controls for the assay include a Nelivaptan concentration-response curve as the reference V1b antagonist and an AVP concentration-response curve to confirm the reproducibility of the EC80 used for the compound challenge.

[2] = biological target: human Arginine Vasopressin Receptor V2 (AVPR2) (Homo sapiens (Human), UniProt P30518); test: Vasopressin V2 receptor antagonist assay (cAMP TR-FRET, 1321N1 cells); assay type: cell-based
Sequence of human Arginine Vasopressin Receptor V2 (AVPR2) (P30518 whole entry): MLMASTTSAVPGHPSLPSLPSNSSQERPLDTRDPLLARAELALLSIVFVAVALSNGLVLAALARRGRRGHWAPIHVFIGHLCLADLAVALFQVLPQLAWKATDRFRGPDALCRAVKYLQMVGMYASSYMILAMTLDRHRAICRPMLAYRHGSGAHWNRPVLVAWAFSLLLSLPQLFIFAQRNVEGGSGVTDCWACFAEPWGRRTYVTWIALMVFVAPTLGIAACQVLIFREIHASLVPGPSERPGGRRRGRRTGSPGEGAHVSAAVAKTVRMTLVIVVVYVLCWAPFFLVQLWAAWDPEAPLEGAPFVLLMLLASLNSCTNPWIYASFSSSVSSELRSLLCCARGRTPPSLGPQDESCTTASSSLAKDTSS
Protocol: The purpose of the assay was to determine the inhibitory effect of synthesized compounds on the Vasopressin receptor 2. […] Arginine Vasopressin (AVP) evokes an increase in intracellular cAMP in these cells which is measured in a TR-FRET assay using a Europium cAMP tracer and ULight labelled antibody reagents contained in a LANCE Ultra cAMP kit (Perkin Elmer #TRF0263). […] Test compounds were assessed for their ability to affect the magnitude of the response to AVP, with antagonists showing a concentration-dependent decrease in the AVP-mediated reduction in TR-FRET signal.
cAMPZen V2 assay ready cells were thawed at 37° C. and resuspended directly from frozen in 9 ml growth medium consisting of DMEM supplemented with 10% v/v fetal bovine serum, 1× non-essential amino acids, and 1 mM sodium pyruvate. Cells were spun at 1000 rpm for 3 minutes and the supernatant was carefully removed and discarded. The pellet was resuspended in 5 ml stimulation buffer and the cell density determined using the Vi-Cell automated cell counter. The cell suspension was diluted to a 0.2×10^6/ml suspension ready for plating. […] Stimulation buffer consisted of HBSS (+Ca/+Mg) supplemented with 5 mM HEPES, 0.1% BSA stabiliser and 0.5 mM IBMX.
At the start of each assay day the potency of AVP was assessed and an EC80 concentration determined for subsequent compound profiling. Assays were performed by first an addition of 2.5 μl of control or test compound at 4× final concentration in stimulation buffer followed by 2.5 μl of AVP at 4× final concentration in stimulation buffer. After a 1 hour reaction, detection reagents were added by first an addition of 5 μl EU-cAMP tracer, followed by 5 μl ULight-anti-cAMP both diluted as per the manufacturer's instructions. […] For compound profiling, test compounds were dispensed by the Labcyte Echo (10-point curve, 1:3 dilutions) in a target 0.1 μl volume then diluted 750-fold in stimulation buffer containing 3% DMSO prior to addition to the cells. At the end of the incubation period, 2.5 μl of AVP in stimulation buffer was added at the previously determined EC80 concentration.

Sequence of human Arginine Vasopressin Receptor 1b (AVPR1b) (P47901 whole entry): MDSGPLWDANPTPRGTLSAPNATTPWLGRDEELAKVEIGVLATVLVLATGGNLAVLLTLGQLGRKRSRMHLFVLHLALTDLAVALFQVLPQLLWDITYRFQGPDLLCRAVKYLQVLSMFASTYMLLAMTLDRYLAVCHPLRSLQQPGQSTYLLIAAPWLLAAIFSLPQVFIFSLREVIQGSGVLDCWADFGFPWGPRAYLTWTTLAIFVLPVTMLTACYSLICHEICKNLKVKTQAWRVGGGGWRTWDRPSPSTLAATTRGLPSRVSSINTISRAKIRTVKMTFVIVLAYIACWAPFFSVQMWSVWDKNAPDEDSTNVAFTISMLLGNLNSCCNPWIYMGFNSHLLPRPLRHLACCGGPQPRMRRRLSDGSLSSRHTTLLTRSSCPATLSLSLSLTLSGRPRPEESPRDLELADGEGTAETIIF

IC50 ([1]; in vitro antagonist assay, reference compounds) [µM] | SMILES | IC50 [1] [µM] | IC50 [2] [µM]
 | COC(=O)N1Cc2cc(Cl)ccc2-n2c(C3CC4(C3)CN(c3ncccn3)C4)nnc2C1C (stereo not drawn) [compound 166] | > 1 | > 1
 | CC1c2nnc(C3CC4(C3)CN(c3ncccn3)C4)n2-c2ccc(Cl)cc2CN1C(=O)OC(CF)CF (single isomer, unassigned) [Cpd 202A] | > 1 | > 1
 | CC(C)N1Cc2cc(Cl)ccc2-n2c(nnc2C2CC3(C2)CN(c2ccc(F)cn2)C3)C1 [compound 50] | > 1 | 0.1 to 0.5
 | CCN1Cc2cc(Cl)ccc2-n2c(nnc2C2CC3(C2)CN(c2ccccn2)C3)C1 [compound 45] | > 1 | 0.1 to 0.5
 | O=C(OC1CC1)N1Cc2cc(Cl)ccc2-n2c(nnc2C2CC3(C2)CN(c2ccc(F)cn2)C3)C1 [compound 90] | > 1 | > 1
 | CC(C)OC(=O)N1Cc2cc(Cl)ccc2-n2c(C3CC4(C3)CN(c3ccc(F)cn3)C4)nnc2C1C (single isomer, unassigned) [Cpd 163A] | > 1 | > 1
 | CC1c2nnc(C3CC4(C3)CN(c3ccc(F)cn3)C4)n2-c2ccc(Cl)cc2CN1C(=O)OC(CF)CF (single isomer, unassigned) [Cpd 203A] | > 1 | 0.5 to 1
 | COC(=O)N1Cc2cc(Cl)ccc2-n2c(C3CC4(C3)CN(c3ncc(F)cn3)C4)nnc2C1C (single isomer, unassigned) [Cpd 170A] | > 1 | 0.5 to 1
 | CC(C)N1Cc2cc(Cl)ccc2-n2c(nnc2C2CC3(C2)CN(c2ncccc2F)C3)C1 [compound 54] | > 1 | 0.5 to 1
 | COC(=O)N1Cc2cc(Cl)ccc2-n2c(C3CC4(C3)CN(c3ncccc3F)C4)nnc2C1C (stereo not drawn) [compound 182] | > 1 | 0.5 to 1
 | O=C(C1CC1)N1CC2(CC(c3nnc4n3-c3ccc(Cl)cc3CN(C(=O)C3(F)CC3)C4)C2)C1 [compound 136] | > 1 | > 1
 | CN1Cc2cc(Cl)ccc2-n2c(nnc2C2CC3(C2)CN(c2cnccn2)C3)C1 [compound 3] | > 1 | > 1
 | O=C(OC(CF)CF)N1Cc2cc(Cl)ccc2-n2c(nnc2C2CC3(C2)CN(c2ccc(F)cn2)C3)C1 [compound 79] | > 1 | 0.5 to 1
 | CN1Cc2cc(Cl)ccc2-n2c(nnc2C2CC3(C2)CN(C(=O)C2CC2)C3)C1 [compound 28] | > 1 | > 1
 | COC(=O)N1Cc2cc(Cl)ccc2-n2c(C3CC4(C3)CN(c3ccc(F)cn3)C4)nnc2C1C (stereo not drawn) [compound 142, methyl 8-chloro-1-(2-(5-fluoropyridin-2-yl)-2-azaspiro[3.3]heptan-6-yl)-4-methyl-4H-benzo[f][1,2,4]triazolo[4,3-a][1,4]diazepine-5(6H)-carboxylate] | > 1 | > 1
 | CC1c2nnc(C3CC4(C3)CN(c3ncc(F)cn3)C4)n2-c2ccc(Cl)cc2CN1C(=O)OC(CF)CF (stereo not drawn) [compound 194] | > 1 | > 1
 | CC(C)N1Cc2cc(Cl)ccc2-n2c(nnc2C2CC3(C2)CN(c2cnccn2)C3)C1 [compound 47] | > 1 | > 1
 | COC(=O)N1Cc2cc(Cl)ccc2-n2c(C3CC4(C3)CN(c3cnccn3)C4)nnc2C1C (single isomer, unassigned) [Cpd 165A] | > 1 | > 1
 | CC(C)N1Cc2cc(Cl)ccc2-n2c(nnc2C2CC3(C2)CN(c2ccccn2)C3)C1 [compound 48] | > 1 | 0.5 to 1

IC50 ([1]; in vitro antagonist assay, reference compounds) [µM] | SMILES | IC50 [1] [µM] | IC50 [2] [µM]
 | CCOC(=O)N1Cc2cc(Cl)ccc2-n2c(C3CC4(C3)CN(c3ncccn3)C4)nnc2C1C (single isomer, unassigned) [Cpd 168A] | > 1 | > 1
 | CCOC(=O)N1Cc2cc(Cl)ccc2-n2c(C3CC4(C3)CN(c3ncc(F)cn3)C4)nnc2C1C (stereo not drawn) [compound 172] | > 1 | > 1
 | CC(C)OC(=O)N1Cc2cc(Cl)ccc2-n2c(nnc2C2CC3(C2)CN(C(=O)C2CC2)C3)C1 [compound 153] | > 1 | > 1
 | Fc1ccc(N2CC3(CC(c4nnc5n4-c4ccc(Cl)cc4CN(C4CCC4)C5)C3)C2)nc1 [compound 42] | > 1 | < 0.1
 | FC(F)CN1Cc2cc(Cl)ccc2-n2c(nnc2C2CC3(C2)CN(c2ccccn2)C3)C1 [compound 52] | > 1 | 0.1 to 0.5
 | CC(CF)OC(=O)N1Cc2cc(Cl)ccc2-n2c(nnc2C2CC3(C2)CN(c2ccc(F)cn2)C3)C1 (stereo not drawn) [compound 78] | > 1 | 0.1 to 0.5
 | CCOC(=O)N1Cc2cc(Cl)ccc2-n2c(C3CC4(C3)CN(c3ncccn3)C4)nnc2C1C (stereo not drawn) [compound 168] | > 1 | > 1
 | O=C(C(F)F)N1Cc2cc(Cl)ccc2-n2c(nnc2C2CC3(C2)CN(C(=O)C2(F)CC2)C3)C1 [compound 134] | > 1 | > 1
 | CC(C)OC(=O)N1Cc2cc(Cl)ccc2-n2c(C3CC4(C3)CN(c3cnccn3)C4)nnc2C1C (stereo not drawn) [compound 164] | > 1 | > 1
 | COC(=O)N1Cc2cc(Cl)ccc2-n2c(C3CC4(C3)CN(c3cnccn3)C4)nnc2C1C (stereo not drawn) [compound 165] | > 1 | > 1
 | COC(=O)N1Cc2cc(Cl)ccc2-n2c(C3CC4(C3)CN(c3ncc(F)cn3)C4)nnc2C1C (stereo not drawn) [compound 170] | > 1 | > 1
 | CC(=O)N1Cc2cc(Cl)ccc2-n2c(nnc2C2CC3(C2)CN(c2ccc(F)cn2)C3)C1 [compound 64] | > 1 | 0.1 to 0.5
 | CN1Cc2cc(Cl)ccc2-n2c(nnc2C2CC3(C2)CN(c2ncccc2F)C3)C1 [compound 4] | > 1 | > 1
 | CCC(=O)N1Cc2cc(Cl)ccc2-n2c(nnc2C2CC3(C2)CN(c2ccc(F)cn2)C3)C1 [compound 72] | > 1 | 0.1 to 0.5
 | CC1c2nnc(C3CC4(C3)CN(c3ccc(F)cn3)C4)n2-c2ccc(Cl)cc2CN1C(=O)C1(F)CC1 (single isomer, unassigned) [Cpd 174A] | > 1 | > 1
 | CC(C)OC(=O)N1Cc2cc(Cl)ccc2-n2c(C3CC4(C3)CN(c3ncccn3)C4)nnc2C1C (stereo not drawn) [compound 167] | > 1 | > 1
 | CC1c2nnc(C3CC4(C3)CN(c3ncccn3)C4)n2-c2ccc(Cl)cc2CN1C(=O)C1(F)CC1 (stereo not drawn) [compound 175] | > 1 | > 1
 | Clc1ccc2c(c1)CN(C1CC1)Cc1nnc(C3CC4(C3)CN(c3ccccn3)C4)n1-2 [compound 56] | > 1 | 0.1 to 0.5
> 1 | CN1Cc2cc(Cl)ccc2-n2c(nnc2[C@H]2CC[C@H](Oc3ccccn3)CC2)C1 [balovaptan, reference compound] |  | 
